Test results: patent US6362195B1, “Branched alkoxy-substituted 2-aminopyridines as NOS inhibitors” (Pfizer Inc., priority 1997, dated 2002)
Counter-ions that a name gives are not always drawn.

## Nc1cccc(-c2ccc(CCN3CCN(CCc4ccccc4)CC3)cc2OC2CCCC2)n1 (as salt: hydrochloride)
  melting point: > 200 °C

## CC(C)Oc1cc(C(O)CN2CCN(CCc3ccccc3)CC2)ccc1-c1cccc(N)n1 (centres unmarked) (as salt: hydrochloride)
  melting point: 148 to 165 °C
